{"source": "ChEMBL document CHEMBL5712883", "about": "“RNA polymerase II stalling promotes nucleosome occlusion and pTEFb recruitment to drive immortalization by Epstein-Barr virus” (PLoS Pathog, 2011)", "conditions_in_all_cases": "Mutu-3, dose 50.0 nM, time 48.0 hrs", "key": {"[1]": {"molecular_target": "Bromodomain-containing protein 4 (Homo sapiens) (UniProt O60885)", "description": "Inhibition of BRD4 in human Mutu-3 cells assessed as decrease in Cp-initiated EBNA 2 transcription at 50 nM incubated for 48 hrs by Q-PCR analysis relative to control"}, "[2]": {"molecular_target": "Bromodomain-containing protein 4 (Homo sapiens) (UniProt O60885)", "remark": "listed apart in the source", "description": "Inhibition of BRD4 in human Mutu-3 cells assessed as decrease in Cp-initiated EBNA 1 transcription at 50 nM incubated for 48 hrs by Q-PCR analysis relative to control"}, "[3]": {"molecular_target": "Bromodomain-containing protein 4 (Homo sapiens) (UniProt O60885)", "remark": "listed apart in the source", "description": "Inhibition of BRD4 in human Mutu-3 cells assessed as decrease in Cp-initiated LMP1 transcription at 50 nM incubated for 48 hrs by Q-PCR analysis relative to control"}, "[4]": {"molecular_target": "Bromodomain-containing protein 4 (Homo sapiens) (UniProt O60885)", "remark": "listed apart in the source", "description": "Inhibition of BRD4 in human Mutu-3 cells assessed as decrease in Brd4 association in -40 cp region at 50 nM incubated for 48 hrs by CHIP analysis"}, "[5]": {"molecular_target": "Bromodomain-containing protein 4 (Homo sapiens) (UniProt O60885)", "remark": "listed apart in the source", "description": "Inhibition of BRD4 in human Mutu-3 cells assessed as decrease in Brd4 association in -208 cp region at 50 nM incubated for 48 hrs by CHIP analysis"}, "[6]": {"molecular_target": "Bromodomain-containing protein 4 (Homo sapiens) (UniProt O60885)", "remark": "listed apart in the source", "description": "Inhibition of BRD4 in human Mutu-3 cells assessed as decrease in Brd4 association in +48 cp region at 50 nM incubated for 48 hrs by CHIP analysis"}, "[7]": {"molecular_target": "Bromodomain-containing protein 4 (Homo sapiens) (UniProt O60885)", "remark": "listed apart in the source", "description": "Inhibition of BRD4 in human Mutu-3 cells assessed as decrease in Brd4 association in +295 cp region at 50 nM incubated for 48 hrs by CHIP analysis"}, "[8]": {"molecular_target": "Bromodomain-containing protein 4 (Homo sapiens) (UniProt O60885)", "remark": "listed apart in the source", "description": "Inhibition of BRD4 in human Mutu-3 cells assessed as decrease in CDK9 association in -40 cp region at 50 nM incubated for 48 hrs by CHIP analysis"}, "[9]": {"molecular_target": "Bromodomain-containing protein 4 (Homo sapiens) (UniProt O60885)", "remark": "listed apart in the source", "description": "Inhibition of BRD4 in human Mutu-3 cells assessed as decrease in CDK9 association in -208 cp region at 50 nM incubated for 48 hrs by CHIP analysis"}, "[10]": {"molecular_target": "Bromodomain-containing protein 4 (Homo sapiens) (UniProt O60885)", "remark": "listed apart in the source", "description": "Inhibition of BRD4 in human Mutu-3 cells assessed as decrease in CDK9 association in +48 cp region at 50 nM incubated for 48 hrs by CHIP analysis"}, "[11]": {"molecular_target": "Bromodomain-containing protein 4 (Homo sapiens) (UniProt O60885)", "remark": "listed apart in the source", "description": "Inhibition of BRD4 in human Mutu-3 cells assessed as decrease in CDK9 association in +295 cp region at 50 nM incubated for 48 hrs by CHIP analysis"}, "[12]": {"molecular_target": "Bromodomain-containing protein 4 (Homo sapiens) (UniProt O60885)", "remark": "listed apart in the source", "description": "Inhibition of BRD4 in human Mutu-3 cells assessed as decrease in Cyclin T1 association in -40 cp region at 50 nM incubated for 48 hrs by CHIP analysis"}, "[13]": {"molecular_target": "Bromodomain-containing protein 4 (Homo sapiens) (UniProt O60885)", "remark": "listed apart in the source", "description": "Inhibition of BRD4 in human Mutu-3 cells assessed as decrease in Cyclin T1 association in -208 cp region at 50 nM incubated for 48 hrs by CHIP analysis"}, "[14]": {"molecular_target": "Bromodomain-containing protein 4 (Homo sapiens) (UniProt O60885)", "remark": "listed apart in the source", "description": "Inhibition of BRD4 in human Mutu-3 cells assessed as decrease in Cyclin T1 association in +48 cp region at 50 nM incubated for 48 hrs by CHIP analysis"}, "[15]": {"molecular_target": "Bromodomain-containing protein 4 (Homo sapiens) (UniProt O60885)", "remark": "listed apart in the source", "description": "Inhibition of BRD4 in human Mutu-3 cells assessed as decrease in Cyclin T1 association in +295 cp region at 50 nM incubated for 48 hrs by CHIP analysis"}}, "note": "Calls of active or inactive are those of the source. No cut-off for these calls is given here."}
{"compound": "Cc1sc2c(c1C)C(c1ccc(Cl)cc1)=N[C@@H](CC(=O)OC(C)(C)C)c1nnc(C)n1-2", "values": [{"measurement": "inhibition", "setting": "[1]", "value": 74, "unit": "%"}, {"measurement": "inhibition", "setting": "[2]", "value": 65, "unit": "%"}, {"measurement": "inhibition", "setting": "[3]", "value": "inactive"}, {"measurement": "inhibition", "setting": "[4]", "value": "Active"}, {"measurement": "inhibition", "setting": "[5]", "value": "Active"}, {"measurement": "inhibition", "setting": "[6]", "value": "Active"}, {"measurement": "inhibition", "setting": "[7]", "value": "Active"}, {"measurement": "inhibition", "setting": "[8]", "value": "Active"}, {"measurement": "inhibition", "setting": "[9]", "value": "Active"}, {"measurement": "inhibition", "setting": "[10]", "value": "Active"}, {"measurement": "inhibition", "setting": "[11]", "value": "Active"}, {"measurement": "inhibition", "setting": "[12]", "value": "Active"}, {"measurement": "inhibition", "setting": "[13]", "value": "Active"}, {"measurement": "inhibition", "setting": "[14]", "value": "Active"}, {"measurement": "inhibition", "setting": "[15]", "value": "Active"}]}
